Some results are limits rather than exact numbers.

Assay [1] relates to lymph node and spleen of AD-induced mice. Kind of assay: DNCB-induced AD model, lymph node and spleen weight and size. Format: in vivo, BALB/c mice. To be noted: for weight and size of spleen: compared to AD-induced mice, p < 0.05 for weight; for decrease in both weight and size of lymph node: compared to untreated AD-mice. On the procedure: (§1) As described in our previous article, the 7-week-old female BALB/c mice were divided into seven groups (n = 8 per group): Control (Con) group, TZP3 200 μg/mL (TZP3) group, and TZP5 200 μg/mL (TZP5) group, DNCB-sensitized only (AD) group, DNCB-sensitized + TZP3 200 μg/mL (AD + TZP3) group, DNCB-sensitized + TZP5 200 μg/mL (AD + TZP5) group, DNCB-sensitized + Dermatop (Sanofi, Korea) 0.25% (AD + Dermatop) group. Dermatop was used as a positive control treatment. For the first induction of AD in the BALB/c mice, the backs of the mice were shaved and challenged with 200 μL of 1% 2,4-dinitrochlorobenzene(DNCB) in acetone/olive oil (3:1) one time (day−4). After 4 days from the induction, 0.5% DNCB was painted onto the backs of the mice every two days (day 2, 4, 6, 8, 10, 12, 14, 16 and 18). Concentrations of 200 μg/mL TZP3 or TZP5 in 20 μL of PBS were applied to the dorsal skin once daily for 18 days.

The subject of assay [2] is TNF-α in RBL-2H3 cells. Kind of assay: Production of TNF-α induced by A23187 and PMA. Format: cell-based, rat. To be noted: 1 μM A23187 and 80 nM PMA, 4 h. The method, then:
The inhibition of TNF-α release induced by A23187 and PMA from the RBL-2H3 cells was assessed by using a previously reported method. The RBL-2H3 cells (2 × 10^5 cells/well) were cultured with 1 μM A23187 and 80 nM PMA for 4 h at 37 °C, after exposure to 0, 15.625, 31.25, 62.5, or 125 μg/mL 30 min of the TZP3 and TZP5. Next, the cells were used for RT-PCR.
Effect of TZP3 and TZP5 on TNF-α suppression
Therefore, the dimer TZP3 and trimer TZP5 were probed for their potential for inhibiting the TNF-α induced from RBL-2H3 cells in in vitro method.
Calcium ionophore A23187 and PMA induced the TNF-α secretion in RBL-2H3 cells, on the contrary, treatment of which with TZP3 and TZP5
Figure S1. Inhibitory effects of the TZP3 and TZP5 on A23187 and PMA-induced TNF-α induced from RBL-2H3 cells. […]

Assay [3] relates to Vancomycin-resistant Enterococcus faecium (VREF) ATCC 51559. Kind of assay: MIC against antibiotic-resistant bacteria. To be noted: broth microdilution, 37 °C, 18–22 h. Format: cell-based. The method, then: (§2) The bacterial strains employed in the experiment were Escherichia coli (KCTC 1682), Pseudomonas aeruginosa (KCTC 1637), Bacillus subtilis (KCTC 3068), Staphylococcus aureus (KCTC 1621), three methicillin-resistant Staphylococcus aureus (CCARM 3089, 3090 and 3095), two multidrug-resistant Pseudomonas aeruginosa (CCARM 2095 and 2109) and vancomycin-resistant Enterococcus faecium (ATCC 51559). The antimicrobial activities of polymers were determined by the broth microdilution method, and the procedures were used as previously reported. Briefly, bacteria grown to mid-logarithmic phase in LB broth were diluted to 2 × 10^6 CFU/mL in 1% peptone and added to serial two-fold dilutions of different polymers ranging from 1 to 64 μg/mL. The plates were incubated in a shaking incubator at 37 °C for 18–22 h. The minimum inhibitory concentration (MIC) was determined by confirming the absence of bacterial growth both visually and spectrophotometrically by OD600 readings taken by a microplate ELISA reader (Molecular Devices, Sunnyvale, CA, USA). All measurements were performed three times.
In general terms: Dilution methods test growth across graded concentrations, often in twofold steps.

Assay [4] has as its system serum total IgE and IgG2a. Kind of assay: DNCB-induced AD model, serum immunoglobulins by ELISA. To be noted: versus AD-induced mice. Format: in vivo, BALB/c mice. On the procedure: as §1
Blood was collected from each experimental group via cardiac puncture and was centrifuged at 3000 rpm and 4 °C for 20 min to obtain the serum. The levels of IgE, IgG2a were measured with an enzyme-linked immunosorbent assay kit (Bethyl Laboratories, Montgomery, TX, USA), following the manufacturer’s instructions.
A general note: In an ELISA, binding on a coated surface is turned into a signal by an enzyme label.

Assay [5] deals with selected bacterial strains. Kind of assay: Geometric mean of MIC values over the bacterial strains. Format: cell-based. To be noted: geometric mean of MIC values from selected six bacterial strains (footnote b). The method, then: as §2
Assay [6] deals with AD-like skin lesion in BALB/c mice. Kind of assay: DNCB-induced AD-like skin lesion model, dermatitis score. To be noted: 200 μg/mL in 20 μL PBS on dorsal skin once daily for 18 days, versus AD mice, n = 8. Format: in vivo. On the procedure: as §1
The severity of dermatitis on the dorsal skin lesions was evaluated three times per week, according to a slight modification of the criteria described previously. The development of (1) erythema/hemorrhage, (2) scarring/dryness, (3) edema, and (4) excoriation/erosion was scored as 0 (none), 1 (mild), 2 (moderate), or 3 (severe). The sum of the individual scores was defined as the dermatitis score.

Assay [7] deals with inflammatory cytokine expression in dorsal skin tissue. Kind of assay: DNCB-induced AD model, cytokine mRNA expression by real-time PCR. Format: in vivo, BALB/c mice. To be noted: AD-like skin lesions, n = 8. On the procedure:
as §1
For the reverse transcription (RT) - polymerase chain reaction (PCR), the total cellular RNA was isolated from the dorsal skin tissue of each treatment group using TRIzol according to the manufacturer’s protocol. The first-strand complementary DNA (cDNA) was synthesized using Superscript II reverse transcriptase (Invitrogen). The conditions for RT-PCR were similar ones that have been previously described in related studies. Quantitative real-time PCR was carried out using a Thermal Cycler Dice TP850 (Takarabio Inc., Shiga, Japan) according to the manufacturer’s protocol. Briefly, 2 μL of cDNA (100 ng), 1 μL of sense and antisense primer solution (0.4 µM), 12.5 μL of SYBR Premix Ex Taq (Takarabio Inc.), and 9.5 μL of dH2O were mixed to obtain a final 25-μL reaction mixture in each reaction tube. The amplification conditions were as follows: 10 s at 95 °C, 40 cycles of 5 s at 95 °C and 30 s at 60 °C, 15 s at 95 °C, 30 s at 60 °C, and 15 s at 95 °C. The mRNA levels of the target genes relative to that of GAPDH were normalized as follows: relative mRNA expression = 2^-(ΔCt of target gene−ΔCt of GAPDH), where Ct is the threshold cycle value. In each sample, the expression level of the analyzed gene was normalized to that of GAPDH and presented as a relative mRNA level.
(In general: In qPCR the cycle at which signal appears reflects the starting amount.)

Take `NCCCN(CCCN)c1nc(Cl)nc(NCCNc2nc(NCCNc3nc(N)nc(NCCC(c4ccccc4)c4ccccc4)n3)nc(N(CCCN)CCCN)n2)n1` [TZP5]: in assay [1], the “weight and size of spleen” value was “significant decrease”; the “decrease in both weight and size of lymph node” value is recorded as “more than 35%”. Besides, in assay [2] (15.6 μg/mL), the TNF-α suppression entry is “didn’t show appreciable TNF-α suppressions”. Also, the TNF-α suppression result in assay [2] (31.2 μg/mL) is given as “didn’t show appreciable TNF-α suppressions”. Also, the TNF-α suppression entry in assay [2] (62.5 μg/mL) is given as “dose-dependent manner”. The TNF-α suppression result in assay [2] (125 μg/mL) is listed as “dose-dependent manner”. Besides, the “MIC VREF ATCC 51559” value in assay [3] was 4 [3] µg/mL. Also, in assay [4], the “serum level of total IgE” value was “significantly reduced” and the “serum level of total IgG2a” value is given as “significantly reduced”. Moreover, in assay [5], the “GM (geometric mean of MIC values)” value came out at 3.0 µg/mL. Further, the dermatitis score entry in assay [6] is recorded as “significantly decreased score”. In addition, in assay [7], the “IL-4 suppression (mRNA expression)” value is given as “around 35%”, the “inhibition of IFN-γ mRNA expression” value is on record as “around 60%”, the “inhibition of IL-1β mRNA expression” value was above 75% and the “inhibition of IL-13 mRNA expression” value is listed as above 75%. For the same molecule, in assay [7], the “inhibition of IL-17 mRNA expression” value is “more than 85%”, the “inhibition of TNF-α mRNA expression” value is listed as around 65%, the “suppression of IL-6 mRNA expression” value is given as around 50% and the “suppression of IL-10 mRNA expression” value is “almost similar potency with the dermatop”.

In the case of `NCCCN(CCCN)c1nc(N)nc(NCCNc2nc(Cl)nc(N(Cc3ccccc3)Cc3ccccc3)n2)n1` [TZP3], in assay [1], the “weight and size of spleen” value is reported as “significant decrease”; the “decrease in both weight and size of lymph node” value is on record as “more than 35%”. Also, the TNF-α suppression in assay [2] (15.6 μg/mL) is given as around 10%. In assay [2] (31.2 μg/mL), this molecule returned a TNF-α suppression of around 10%. Also, the TNF-α suppression entry in assay [2] (62.5 μg/mL) is “approximately 70%”. The same molecule yielded a TNF-α suppression in assay [2] (125 μg/mL) of around 90%. The “MIC VREF ATCC 51559” value in assay [3] was 8 [13.5] µg/mL. Besides, in assay [4], the “serum level of total IgE” value is on record as “significantly reduced” and the “serum level of total IgG2a” value was “significantly reduced”. For the same molecule, the “GM (geometric mean of MIC values)” value in assay [5] is 4.5 [7.6] μg/mL. In addition, the dermatitis score entry in assay [6] is “significantly decreased score”. In assay [7], the “IL-4 suppression (mRNA expression)” value was “around 35%”, the “inhibition of IFN-γ mRNA expression” value was “around 60%”, the “inhibition of IL-1β mRNA expression” value was “more than 70%” and the “inhibition of IL-13 mRNA expression” value was “more than 70%”. Besides, in assay [7], the “inhibition of IL-17 mRNA expression” value amounted to 60%, the “inhibition of TNF-α mRNA expression” value was “approximately 55%”, the “suppression of IL-6 mRNA expression” value is on record as “around 60%” and the “suppression of IL-10 mRNA expression” value is on record as “around 35%”.

These data come from PMC6805867, “Amphiphilic Triazine Polymer Derivatives as Antibacterial And Anti-atopic Agents in Mice Model” (Scientific Reports, 2019).
